The subject of test [1] is bloodstream form T. b. brucei parasites. Description: Resazurin-based anti-trypanosomal assay on bloodstream form T. b. brucei parasites. It counts as cell-based, Trypanosoma brucei brucei. The settings on record: for IC50: Trypanosoma brucei. Here is the method: Bloodstream form T. b. brucei Lister 927 variant 221 strain parasites were cultured in filter sterilized complete Iscoves Modified Dulbeccos Media (IMDM) based HM1-9 medium (IMDM base powder, […] sodium bicarbonate, 1 mM hypoxanthine, 1 mM sodium pyruvate, 0.16 mM thymidine, 0.05 mM bathocuprone sulphate acid, 10% (v/v) heat inactivated foetal bovine serum, 1.5 mM L-cysteine, 0.2 mM β-mercaptoethanol, pH 7.5) in a humidified chamber at 37 °C with an atmosphere of 5% CO2. Parasite growth was monitored using a Neubauer haemocytometer to count the cell number, after which cells were diluted, according to their density, in the described pre-warmed media.
All compounds of interest were resuspended to stocks of 30 mM in DMSO and stored at −80 °C prior to use in in vitro experiments. For assessment of anti-trypanosomal activity, compounds were added to in vitro cultures of bloodstream form T. b. brucei parasites (1 × 10^5 cells/mL) in 96-well plates at a fixed concentration of 20 μM. After an incubation period of 48 h, the number of parasites surviving drug exposure were determined using a resazurin-based cytotoxicity assay. Resazurin is an oxidation–reduction sensitive dye that is reduced by living cells to resorufin. Resorufin is a fluorophore (Excitation560/Emission590) and thus was quantified in a multi-well fluorescence plate reader. Results are expressed as % parasite viability—the resorufin fluorescence in small molecule-treated wells relative to untreated controls. Assessment of each small molecule was conducted in duplicate, with error bars representing standard deviation (SD). […] The compounds were added to in vitro cultures of bloodstream form T. b. brucei parasites (1 × 10^5 cells/mL) in 96-well plates in a 3-fold dilution series with 100 μM as the highest concentration. After an incubation period of 48 h, the number of parasites surviving drug exposure were determined as previously mentioned. The % parasite viability was determined as previously mentioned. The IC50 (the concentration of compound required to decrease cell viability of T. b. brucei parasites by 50% compared to those grown in the absence of the compound) values for each of the compounds were determined from a dose–response curve by non-linear regression generated using GraphPad Prism® (v. 7.0; San Diego, CA, USA) software. For comparative purposes, pentamidine at a fixed concentration of 1 μM was employed as a drug standard.
On the technique in general: Resazurin is reduced to fluorescent resorufin, in cell work by metabolically active cells.

Another test concerns the target T1, TbHsp70 / Tbj2 (Trypanosoma brucei brucei, UniProt P11145).
T1 construct: His-tag; made in house; host or cells: Escherichia coli (Tbj2: E. coli BL21 (DE3))
Description: Tbj2-stimulated ATPase activity assay, TbHsp70. It counts as biochemical. The settings on record: TbHsp70, 150 μM, Figure 5A. Here is the method: (§1) The determination of the ATPase activity of the Hsp70 proteins was performed using the high throughput colorimetric ATPase assay kit (Innova Biosciences, Cambridge, UK). This method enables the quantification of the inorganic phosphate (Pi) released from ATP hydrolysis by an enzyme. Briefly, the molecular chaperones were prepared in ATPase assay buffer (100 mM Tris-HCl, 7.5, 2 mM MgCl2, 50 mM KCl, 0.5 mM DTT) and incubated with ATP (0–2 mM) for 1 h at 37 °C. […] The samples containing Pi hydrolysed from ATP were incubated with the PiColorLock™ solution, which is a malachite green dye solution that in the presence of Pi changes absorbance due to generation of molybdate-phosphate complexes. The absorbance was measured at 595 nm using a Powerwave 96-well plate reader (BioTek Instruments, Inc., Winooski, VT, USA), and absorbance values were converted to phosphate concentrations using a standard curve of absorbance vs. phosphate concentration based on a set of Pi standards provided by the supplier assayed along with the samples. All samples were corrected for spontaneous breakdown of ATP observed in a control experiment in the absence of protein. The trypanosomal and human Hsp70s were used at 0.8 μM, and the J-proteins were used at 0.4 μM. An initial screen of the modulatory effects of the compounds on the ATPase activity of the Hsp70s was conducted using 300 μM of the compounds. Compounds identified to have a modulatory effect on the basal and J-protein-stimulated ATPase activity of Hsp70 were used at varying concentrations. The modulatory effect of the selected compounds on the basal and J-protein stimulated ATPase activity of the T. brucei Hsp70s was represented as fold change with the basal and J-protein stimulated ATPase activity of the Hsp70s taken as 1 respectively. These experiments were conducted on three independently purified batches of proteins, but due to limited availability of the selected compounds, each assay was conducted in duplicate on each batch of protein. In control reactions to evaluate the effect of DMSO on basal and J-protein stimulated ATPase activity of the Hsp70s, the solvent was added to a final concentration of 1% (v/v) in the assay. The assays were performed in duplicate on three independently purified batches of proteins.

Another test relates to TbHsp70.4 / Tbj2. Nature of the test: Tbj2-stimulated ATPase activity assay, TbHsp70.4. The following applies: TbHsp70.4, 150 μM, Figure 5B. Format: biochemical, Trypanosoma brucei. The protocol:
as §1

[2] abbreviates: T. b. brucei parasites, stated as bound, read-out: IC50 values.
The mark [3] stands for this setting: Table 1, T. b. brucei parasites cultured in vitro, 48 h, dose-response, read-out: IC50/μM.
The mark [4] stands for this setting: Table S1, 48 select compounds, T. b. brucei, 48 h, read-out: IC50/.

The values below come from publication PMC7074166, “Screening for Small Molecule Modulators of Trypanosoma brucei Hsp70 Chaperone Activity Based upon Alcyonarian Coral-Derived Natural Products” (Marine Drugs, 2020).

Where two headings read alike, the source gives them in different places.

T1 sequence (P11145 whole entry): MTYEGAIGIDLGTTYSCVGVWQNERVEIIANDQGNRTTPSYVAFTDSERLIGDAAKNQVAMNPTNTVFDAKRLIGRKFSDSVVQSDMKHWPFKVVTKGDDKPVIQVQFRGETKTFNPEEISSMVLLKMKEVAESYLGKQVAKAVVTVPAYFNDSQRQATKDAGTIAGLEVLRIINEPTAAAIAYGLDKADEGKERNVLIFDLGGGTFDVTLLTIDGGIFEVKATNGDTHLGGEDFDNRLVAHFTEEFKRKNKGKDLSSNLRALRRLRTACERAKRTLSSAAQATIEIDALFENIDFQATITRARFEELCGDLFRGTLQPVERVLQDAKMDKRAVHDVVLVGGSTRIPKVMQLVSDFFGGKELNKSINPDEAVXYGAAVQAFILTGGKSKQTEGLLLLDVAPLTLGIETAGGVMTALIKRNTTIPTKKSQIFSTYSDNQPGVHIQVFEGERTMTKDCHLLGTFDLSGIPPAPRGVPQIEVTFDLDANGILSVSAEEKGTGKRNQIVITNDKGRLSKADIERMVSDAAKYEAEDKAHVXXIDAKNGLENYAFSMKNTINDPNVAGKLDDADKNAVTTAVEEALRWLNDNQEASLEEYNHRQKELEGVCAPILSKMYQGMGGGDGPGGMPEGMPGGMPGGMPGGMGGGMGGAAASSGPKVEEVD

In the case of `CC(C)=CCC/C(C)=C/Cn1cnc2c1c(=O)[nH]c(=O)n2C/C=C(\C)CCC=C(C)C` [Compound 27, 3,7-Bis((E)-3,7-dimethylocta-2,6-dien-1-yl)-3,7-dihydro-1H-purine-2,6-dione], the IC50 in test [1] (setting [2]) is less than 7 µM; in test [1] (setting [3]), 2 µM. The “effect of order of addition (compound vs Tbj2) on inhibition of J-stimulated ATPase activity” value on TbHsp70 / Tbj2 and in the test with TbHsp70.4 / Tbj2 was “no significant difference” each time.
As to `CC(C)=CCC/C(C)=C/CCC(C)=CCn1cnc2c1c(=O)[nH]c(=O)n2CC=C(C)CC/C=C(\C)CCC=C(C)C` [Compound 28, 3,7-Bis((6E)-3,7,11-trimethyldodeca-2,6,10-trien-1-yl)-3,7-dihydro-1H-purine-2,6-dione], the IC50 is less than 7 µM in test [1] (setting [2]), 1.2 µM in test [1] (setting [3]) and 1.15 µM in test [1] (setting [4]). The “effect of order of addition (compound vs Tbj2) on inhibition of J-stimulated ATPase activity” value at TbHsp70 / Tbj2 and with TbHsp70.4 / Tbj2 was “no significant difference” in each case.
As to `CC(C)=CCC/C(C)=C/CC/C(C)=C/Cn1cnc2c1c(=O)[nH]c(=O)n2C` [Compound 31, 3-methyl-7-((2E,6E)-3,7,11-trimethyldodeca-2,6,10-trien-1-yl)-3,7-dihydro-1H-purine-2,6-dione], the IC50 in test [1] (setting [2]) is less than 7 µM; in test [1] (setting [3]) it was 1.9 µM; in test [1] (setting [4]), 1.91 µM. The “effect of order of addition (compound vs Tbj2) on inhibition of J-stimulated ATPase activity” value at TbHsp70 / Tbj2 and with TbHsp70.4 / Tbj2 was “no significant difference” throughout.
In the case of `CC(C)=CCC/C(C)=C/CC/C(C)=C/CC/C(C)=C\Cn1ccc(=O)[nH]c1=O` [Compound 56, 1-((2Z,6E,10E)-3,7,11,15-Tetramethylhexadeca-2,6,10,14-tetraen-1-yl)pyrimidine-2,4(1H,3H)-dione], the IC50 in test [1] (setting [3]) is 6.2 µM.
As for `CC(C)=CCC/C(C)=C/CC/C(C)=C/CC/C(C)=C/Cn1cc(C)c(=O)[nH]c1=O` [Compound 59, 5-Methyl-1-((2E,6E,10E)-3,7,11,15-tetramethylhexadeca-2,6,10,14-tetraen-1-yl)pyrimidine-2,4(1H,3H)-dione], in test [1] (setting [3]), the IC50 was 15.8 µM.
`CC(C)=CCC/C(C)=C/CCC(C)=CCn1ccc(=N)n(CC=C(C)CC/C=C(\C)CCC=C(C)C)c1=O` [Compound 63, 4-imino-1,3-bis((6E)-3,7,11-trimethyldodeca-2,6,10-trien-1-yl)-3,4-dihydropyrimidin-2(1H)-one]: the IC50 is less than 7 µM in test [1] (setting [2]), 2.1 µM in test [1] (setting [3]) and 2.05 µM in test [1] (setting [4]). Moreover, the “effect of order of addition (compound vs Tbj2) on inhibition of J-stimulated ATPase activity” value on TbHsp70 / Tbj2 and with TbHsp70.4 / Tbj2 was “no significant difference” each time.
Turning to `CC(C)=CCC/C(C)=C/CCC(C)=CCN1C(=O)c2ccccc2C1=O` [Compound 68, 2-((6E)-3,7,11-Trimethyldodeca-2,6,10-trien-1-yl)isoindoline-1,3-dione], the IC50 in test [1] (setting [3]) and in test [1] (setting [4]) was 32.2 µM each time.
For the molecule `CC(C)=CCC/C(C)=C/CC/C(C)=C/CC/C(C)=C/CN1C(=O)c2ccccc2C1=O` [Compound 69, 2-((2E,6E,10E)-3,7,11,15-Tetramethylhexadeca-2,6,10,14-tetraen-1-yl)isoindoline-1,3-dione], the IC50 in test [1] (setting [3]) was 9.2 µM; in test [1] (setting [4]), 9.16 µM.
With `CC(C)=CCC/C(C)=C/CCC(C)=CCn1ccnc1` [Compound 71, 1-((6E)-3,7,11-Trimethyldodeca-2,6,10-trien-1-yl)-1H-imidazole], the IC50 in test [1] (setting [3]) and in test [1] (setting [4]) was 26.8 µM throughout.
`CC(C)=CCC/C(C)=C/CC/C(C)=C/CC/C(C)=C/Cn1ccnc1` [Compound 72, 1-((2E,6E,10E)-3,7,11,15-Tetramethylhexadeca-2,6,10,14-tetraen-1-yl)-1H-imidazole]: the results for the IC50 in test [1] (setting [3]) and in test [1] (setting [4]) were 3.4 µM and 3.42 µM, respectively.
`CC(C)=CCC/C(C)=C/CC/C(C)=C\CNC=O` [Compound 74, N-((2Z,6E)-3,7,11-Trimethyldodeca-2,6,10-trien-1-yl)formamide]: the IC50 in test [1] (setting [3]) and in test [1] (setting [4]) was 27.3 µM in each case.
`CC(C)=CCC/C(C)=C/CCC(C)=CCNC=O` [Compound 75, N-((6E)-3,7,11-trimethyldodeca-2,6,10-trien-1-yl)formamide]: the “anti-trypanosomal activity (SAR statement)” value in test [1] (T. b. brucei, screen at 20 μM) was “inactive”.
In the case of `CC(C)=CCC/C(C)=C/CC/C(C)=C/CC/C(C)=C\CNC=O` [Compound 76, N-((2Z,6E,10E)-3,7,11,15-Tetramethylhexadeca-2,6,10,14-tetraen-1-yl)formamide], the IC50 in test [1] (setting [3]) and in test [1] (setting [4]) was 11 µM each time.
Take `CC(C)=CCC/C(C)=C/CC/C(C)=C/CC/C(C)=C/CNC=O` [Compound 77, N-((2E,6E,10E)-3,7,11,15-tetramethylhexadeca-2,6,10,14-tetraen-1-yl)formamide]: the IC50 in test [1] (setting [3]) and in test [1] (setting [4]) was 41.8 µM throughout.
Regarding `CC(C)=CCC/C(C)=C/CC/C(C)=C/CC/C(C)=C/CN(C)C=O` [Compound 80, N-Methyl-N-((2E,6E,10E)-3,7,11,15-tetramethylhexadeca-2,6,10,14-tetraen-1-yl)formamide], the IC50 in test [1] (setting [3]) and in test [1] (setting [4]) was 41.2 µM in each case.
In the case of `CC(=O)NC/C=C(/C)CC/C=C(\C)CCC=C(C)C` [Compound 82, N-((2Z,6E)-3,7,11-Trimethyldodeca-2,6,10-trien-1-yl)acetamide], the IC50 in test [1] (setting [3]) amounted to 4.5 µM; in test [1] (setting [4]) it was 4.49 µM.
With `CC(=O)NC/C=C(\C)CC/C=C(\C)CCC=C(C)C` [Compound 83, N-((2E,6E)-3,7,11-trimethyldodeca-2,6,10-trien-1-yl)acetamide], the IC50 in test [1] (setting [3]) and in test [1] (setting [4]) was 21.5 µM throughout.
With `CC(=O)NC/C=C(/C)CC/C=C(\C)CC/C=C(\C)CCC=C(C)C` [Compound 84, N-((2Z,6E,10E)-3,7,11,15-Tetramethylhexadeca-2,6,10,14-tetraen-1-yl)acetamide], the IC50 is 2.2 µM in test [1] (setting [3]) and 2.17 µM in test [1] (setting [4]).
The matching figures for `CC(=O)NC/C=C(\C)CC/C=C(\C)CC/C=C(\C)CCC=C(C)C` [Compound 85, N-((2E,6E,10E)-3,7,11,15-tetramethylhexadeca-2,6,10,14-tetraen-1-yl)acetamide]: 3.1 µM and 3.14 µM.
With `CC(=O)N(C)C/C=C(\C)CC/C=C(\C)CC/C=C(\C)CCC=C(C)C` [Compound 88, N-Methyl-N-((2E,6E,10E)-3,7,11,15-tetramethylhexadeca-2,6,10,14-tetraen-1-yl)acetamide], the IC50 in test [1] (setting [3]) amounted to 38.4 µM.
As for `N=C(N)c1ccc(OCCCCCOc2ccc(C(=N)N)cc2)cc1` [pentamidine, reference compound], the IC50 in test [1] (T. b. brucei parasites cultured in vitro, positive control, read-out: IC50 of drug standard) was 0.0053 µM.
